Reference: patent US10376553B2, “Pharmaceutical composition for preventing and treating chronic obstructive lung disease containing, as active ingredient, Magnoliae flos extract, fraction, or active fraction thereof” (KOREA RESEARCH INSTITUTE OF BIOSCIENCE AND BIOTECHNOLOGY, priority 2015, dated 2019)

Legend:
[1] = test system: TNF-α; test: TNF-α level in BALF of the COPD model (ELISA); type: in vivo, C57BL/6N mice; settings: vs COPD-induced group; for TNF-α inhibition rate (%): BALF
Experimental: (§1) Cytokines were measured in the cell supernatant obtained in <Test Example 6-3> above by the following method. Specifically, the levels of IL-6 (R & D System, USA) and TNF-α (BD Bioscience, USA) in the separated BALF were measured by enzyme-linked immuno-sorbent assay (ELISA). Each cytokine analysis was carried out according to the manufacturer's test method.

[2] = test system: MUC5AC promoters; test: MUC5AC promoter luciferase reporter assay in H292 cells; type: cell-based, human; settings: Table 7, MUC5AC promoter luciferase reporter, 10 μM, TNF-α 20 ng/mL
Description: The degree of activation of luciferase was confirmed using a One-glow Luciferase Assay System (Promega).
As a result, as shown in the following Table 7, the activity of the MUC5AC promoters increased in the group treated with TNF-α.

[3] = test system: inflammatory cells in the bronchoalveolar lavage fluid; test: Inflammatory cells in bronchoalveolar lavage fluid of the COPD mouse model (cigarette smoke + LPS); type: in vivo, C57BL/6N mice; settings: BALF, vs COPD-induced group
Experimental: Six-week-old male SPF (specific pathogen-free) C57BL/6N mice (22 to 24 g) were supplied by Koatech (Korea). These animals were fed with a sufficient amount of solid feed (no antibiotics, Samyang Feed Co.) and water until the day of the experiment. They were allowed to adapt for 1 week in a light-dark cycle environment at a temperature of 22±2° C. and a humidity of 55±15%, and then subjected to the experiment.
The animal model was exposed to cigarette smoke to induce chronic obstructive pulmonary disease. 3R4F Kentuchy Reference Cigarettes as standard cigarettes for use to generate cigarette smoke were supplied by University of California (USA). The standard cigarettes contain 9.4 mg of tar, 11 mg of total particle matter (TPM), and 12 mg of carbon monoxide per 1 cigarette. The standard cigarettes were used after harmonization for 48 hours to 72 hours at a temperature of 22±1° C. and a humidity of 60±2%. Further, Cigarette Smoke Generator manufactured by Korea BioLink (Korea) was used for exposure to cigarette smoke. Cigarette smoke was inhaled for 1 hour (8 pcs/hour) for 7 days from 1 hour after oral administration of a sample. 10 μg of LPS (lipopolysaccharide) in PBS 50 μL was injected intranasally to each mouse on the 4th day of the experiment after the mouse was anesthetized with zoletyl 1 hour before the exposure to cigarette smoke. The smoking condition was 8 puffs per 1 standard cigarette (volume: 45 mL, duration: 2 seconds, and interval: 1 time/min).
The active fraction of Magnoliae flos (15, 30 mg/kg) and roflumilast (10 mg/kg) as therapeutic substances were dissolved in 0.5% sodium carboxymethyl cellulose and were orally administered 1 hour before the exposure to cigarette smoke.
The experimental groups were divided into (i) normal control (NC) group; (ii) cigarette smoke+LPS exposure group (COPD); (iii) experimental group administered with roflumilast (ROF) (10 mg/kg, p.o) 1 hour before the exposure to cigarette smoke+LPS; and (iv) experimental group administered with the active fraction of Magnoliae flos (15, 30 mg/kg, p.o; Magnoliae flos 15 and Magnoliae flos 30) 1 hour before the exposure to cigarette smoke+LPS. […] Then, they were administered in the same manner as above.
The bronchial alveolar lavage fluid was separated from the animal model treated with the active fraction and the compounds of Magnoliae flos in <Test Example 6-2> above in the following manner, and the number of inflammatory cells was measured.
Specifically, a mouse sonde was inserted into the bronchial tube, a 1 mL syringe containing 0.7 mL of DPBS (Dulbecco's Phosphate-Buffered Saline) was connected thereto, and DPBS was injected into the lung. The injected DPBS was recovered, and this procedure was repeated twice. The bronchoalveolar lavage fluid separated by DPBS was centrifuged at 1,500 rpm for 15 minutes to make a cell pellet. The supernatant was stored frozen at −70° C. for cytokine analysis. Each cell obtained was suspended in DPBS, attached to a slide glass using a cytospin centrifuge, and Diff-Quik stained. The number of inflammatory cells in each sample was counted through microscopic examination, and the inhibition rate was calculated according to the following Equation 3.
Inhibition rate=(Value of COPD-induced group−value of target substance administered group)×100/(Value of COPD-induced group) [Equation 3]

[4] = test system: IL-6; test: IL-6 level in BALF of the COPD model (ELISA); type: in vivo, C57BL/6N mice; settings: vs COPD-induced group; for IL-6 inhibition rate (%): BALF
Experimental: as §1

[5] = test system: H292 cells; test: Cytotoxicity (CCK-8 cell viability) of the compounds of Magnoliae flos in H292 cells; type: cell-based, human; settings: 24 h, vs 0.2% DMSO control = 100%
Experimental: Then, 10 μl of the CCK-8 solution (Dojindo Laboratories, Japan) was mixed with 90 μl of the medium, and 100 μl thereof was added per well. After incubation for a minimum of 30 minutes to a maximum of 4 hours, the absorbance was measured at 570 nm. The cell viability was calculated according to the following Equation 2 with a negative control group treated with 0.2% DMSO as a reference of 100%.
Cell viability=(Compound treated OD 570 nm value)×100/(Negative control group OD 570 nm value) [Equation 2]

[6] = test system: reactive oxygen species; test: Production of active oxygen species in BALF of the COPD model (DCF-DA); type: in vivo, C57BL/6N mice
Experimental: Production of active oxygen species in the bronchoalveolar lavage fluid obtained in <Test Example 6-3> above was confirmed by the following method.
Specifically, the separated BALF (200 μL) was treated to the final concentration of 20 μM of DCF-DA (dihydrodichlorofluorescein diacetate, Sigma-Aldrich, USA), followed by culturing for 30 minutes and measurement using Fluorescence (Molecular Device, USA). The inhibition rate was calculated by Equation 3 above.

[7] = test system: MUC5AC protein; test: Inhibition of MUC5AC protein production (immunoassay) by the compounds; type: cell-based, human; settings: for MUC5AC secretion (Relative amount to TNF-α treated group, %) / Inhibition rate (%): TNF-α 20 ng/mL; for Inhibition rate (%): MUC5AC secretion; for production of MUC5AC (in words): vs TNF-α treated group = 100%
Experimental: For immunoassay of the resulting MUC5AC, the supernatant (50 uL) recovered was dispensed on to a 96-well plate and dried in a thermostat set at 50° C. It was washed with PBS supplemented with 1% BSA and reacted with an MUC5AC antibody (abcam, USA) at room temperature for 1 hour. A secondary antibody was dispensed thereto for reaction for 1 hour. It was washed again and then reacted with a 3,3′,5,5′-tetramethylbenzidine peroxide solution for 20 minutes. After the reaction was stopped with a sulfuric acid solution, the degree of color development was measured at 450 nm.
As a result, as shown in the following Table 6, the amount of MUCSAC secretion increased in the group treated with TNF-α.

[8] = 15 mg/kg p.o., vs COPD-induced group
[9] = 30 mg/kg p.o., vs COPD-induced group

SMILES | TNF-α inhibition rate (%) ([1]; 15 mg/kg p.o.) | TNF-α inhibition rate (%) ([1]; 30 mg/kg p.o.) | TNF-α secretion in the bronchoalveolar lavage fluid (in words) [1] | Inhibition rate (%) [2] | Inhibition rate of inflammatory cell infiltration (%) Macrophage ([3]; 15 mg/kg p.o.) | Inhibition rate of inflammatory cell infiltration (%) Neutrophil ([3]; 15 mg/kg p.o.) | Inhibition rate of inflammatory cell infiltration (%) Total inflammatory cells ([3]; 15 mg/kg p.o.) | Inhibition rate of inflammatory cell infiltration (%) Macrophage ([3]; 30 mg/kg p.o.) | Inhibition rate of inflammatory cell infiltration (%) Neutrophil ([3]; 30 mg/kg p.o.) | Inhibition rate of inflammatory cell infiltration (%) Total inflammatory cells ([3]; 30 mg/kg p.o.) | IL-6 inhibition rate (%) ([4]; 15 mg/kg p.o.) | IL-6 inhibition rate (%) ([4]; 30 mg/kg p.o.) | IL-6 in the bronchoalveolar lavage fluid (in words) [4] | Viability of H292 cells (%, average ± deviation) ([5]; 2.5 μM) | Viability of H292 cells (%, average ± deviation) ([5]; 5 μM) | Viability of H292 cells (%, average ± deviation) ([5]; 10 μM) | Active oxygen inhibition rate (%) [6, 8] | Active oxygen inhibition rate (%) [6, 9] | Inhibition rate (%) ([7]; 2.5 μM) | Inhibition rate (%) ([7]; 5 μM) | further results
COc1ccc([C@H]2OC[C@H]3[C@@H]2CO[C@H]3c2cc(OC)c(OC)c(OC)c2)cc1OC [Compound S4, epimagnolin] | 13.8 ± 5.5% | 24.7 ± 6.5% | concentration-dependent inhibition | 63.2% | 0.0 ± 0.0% | 13.8 ± 4.9% | 14.0 ± 5.1% | 21.4 ± 6.5% | 25.7 ± 5.5% | 29.1 ± 4.4% | 0.0 ± 0.0% | 40.3 ± 3.7% | concentration-dependent decrease | 99.81 ± 2.15% | 100.74 ± 2.84% | 99.45 ± 1.53% | 13.5 ± 4.3% | 15.9 ± 4.2% | 9.45% | 25.76% | MUC5AC secretion (Relative amount to TNF-α treated group, %) [2]: 36.8 ± 6.97%; Viability of H292 cells (%, average ± deviation) ([5]; 20 μM): 97.20 ± 1.99%; rate of inhibiting reactive oxygen compared with ROF drug control group (in words) ([6]; 30 mg/kg): higher rates of inhibiting reactive oxygen than that of the drug control group treated with ROF; MUC5AC secretion (Relative amount to TNF-α treated group, %) ([7]; 2.5 μM): 90.55 ± 2.59%; MUC5AC secretion (Relative amount to TNF-α treated group, %) ([7]; 5 μM): 74.24 ± 2.83%; MUC5AC secretion (Relative amount to TNF-α treated group, %) ([7]; 10 μM): 63.71 ± 1.27%; Inhibition rate (%) ([7]; 10 μM): 36.29%; production of MUC5AC (in words) [7]: inhibited in a manner depending on the concentrations; production of MUC5AC (in words) ([7]; listed as Formula 5): inhibited the production of MUC5AC in a manner depending on concentration
COc1ccc([C@H]2OC[C@H]3[C@@H]2CO[C@@H]3c2ccc(OC)c(OC)c2)cc1OC [Compound S1, dimethylpinoresinol] | 25.0 ± 7.8% | 38.0 ± 4.1% | concentration-dependent inhibition | 55.74% | 12.8 ± 10.4% | 45.9 ± 3.4% | 42.2 ± 2.5% | 40.0 ± 5.4% | 54.5 ± 3.4% | 54.3 ± 3.5% | 56.2 ± 6.6% | 67.6 ± 6.6% | concentration-dependent decrease | 121.27 ± 2.04% | 121.61 ± 3.75% | 118.76 ± 1.96% | 17.9 ± 5.1% | 34.7 ± 3.2% | 8.64% | 26.36% | increase in inflammatory cells (in words) [3]: effectively inhibited; production of active oxygen species (in words) ([6]; 15 and 30 mg/kg, vs COPD-induced group): relatively higher inhibition rates in a manner depending on concentration; Inhibition rate (%) ([7]; 10 μM): 30.2%; production of MUC5AC (in words) [7]: inhibited in a manner depending on the concentrations; production of MUC5AC (in words) ([7]; listed as Formula 2): inhibited the production of MUC5AC in a manner depending on concentration
